Assay results from PubChem BioAssay AID1963833 (Molecular Pharmacology Branch, DTP, NCI, 2024).

Test system: 883617-216-R-J1-PDC complex spheroid viability
Assay: Anticancer human tumor 883617-216-R-J1-PDC patient-derived bladder carcinoma cell line growth inhibition [POLQ]
Settings: for IC50: curve of first compound; for viability, T/C: stronger effect = lower value
Outline: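 Patient-derived tumour cells were co-cultured with HUVEC and mesenchymal stem cells as multicellular spheroids at 37 °C. They were treated with POLQ inhibitors (novobiocin, ART-558, RP6685) alone or combined with other agents. Top concentrations were at or near clinical Cmax (otherwise 10 microM; SN-38 at 1 microM), decreasing in half-log steps.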

[1] = second compound 0.0316 µM, first compound 0.0316 µM
[2] = second compound 0.0316 µM, first compound 0.1 µM
[3] = second compound 0.0316 µM, first compound 0.316 µM
[4] = second compound 0.0316 µM, first compound 1 µM
[5] = second compound 0.0316 µM, first compound 3.16 µM
[6] = second compound 0.0316 µM, first compound 10 µM
[7] = second compound 0.1 µM, first compound 0.0316 µM
[8] = second compound 0.1 µM, first compound 0.1 µM
[9] = second compound 0.1 µM, first compound 0.316 µM
[10] = second compound 0.1 µM, first compound 1 µM
[11] = second compound 0.1 µM, first compound 3.16 µM
[12] = second compound 0.1 µM, first compound 10 µM
[13] = second compound 0.316 µM, first compound 0.0316 µM
[14] = second compound 0.316 µM, first compound 0.1 µM
[15] = second compound 0.316 µM, first compound 0.316 µM
[16] = second compound 0.316 µM, first compound 1 µM
[17] = second compound 0.316 µM, first compound 3.16 µM
[18] = second compound 0.316 µM, first compound 10 µM
[19] = second compound 1 µM, first compound 0.0316 µM
[20] = second compound 1 µM, first compound 0.1 µM
[21] = second compound 1 µM, first compound 0.316 µM
[22] = second compound 1 µM, first compound 1 µM
[23] = second compound 1 µM, first compound 3.16 µM
[24] = second compound 1 µM, first compound 10 µM
[25] = second compound 3.16 µM, first compound 0.0316 µM
[26] = second compound 3.16 µM, first compound 0.1 µM
[27] = second compound 3.16 µM, first compound 0.316 µM
[28] = second compound 3.16 µM, first compound 1 µM
[29] = second compound 3.16 µM, first compound 3.16 µM
[30] = second compound 3.16 µM, first compound 10 µM
[31] = second compound 10 µM, first compound 0.0316 µM
[32] = second compound 10 µM, first compound 0.1 µM
[33] = second compound 10 µM, first compound 0.316 µM
[34] = second compound 10 µM, first compound 1 µM
[35] = second compound 10 µM, first compound 3.16 µM
[36] = second compound 10 µM, first compound 10 µM
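Also: spheroids exposed to compounds for seven days before readout.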
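For viability, T/C in this document: 100% = DMSO vehicle control viability.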

COc1cc2cc(C(=O)CCC(=O)O)sc2cc1OC + Nc1ccc(C#CCN(C(=O)Cc2ncc(C(F)(F)F)cc2C(F)(F)F)c2ccc(F)cc2)nn1 was tested, and the IC50 (second compound 0.0316 µM) was over 10000 nM, the IC50 (second compound 0.1 µM) was over 10000 nM and the IC50 (second compound 0.316 µM) was over 10000 nM. The IC50 (second compound 1 µM) was over 10000 nM, the IC50 (second compound 3.16 µM) was over 10000 nM and the IC50 (second compound 10 µM) was over 10000 nM. It also gave a viability, T/C [1] of 109%, a viability, T/C [2] of 107% and a viability, T/C [3] of 123%. It also gave a viability, T/C [4] of 93.5%, a viability, T/C [5] of 105% and a viability, T/C [6] of 104%. For the same compound, the viability, T/C [7] was 112%, the viability, T/C [8] was 90.6% and the viability, T/C [9] was 101%. It also gave a viability, T/C [10] of 95.5%, a viability, T/C [11] of 101% and a viability, T/C [12] of 107%. The viability, T/C [13] was 90.7%, the viability, T/C [14] was 101% and the viability, T/C [15] was 94.9%. It also gave a viability, T/C [16] of 100%, a viability, T/C [17] of 114% and a viability, T/C [18] of 106%. For the same compound, the viability, T/C [19] was 97.1%, the viability, T/C [20] was 125% and the viability, T/C [21] was 108%. It also gave a viability, T/C [22] of 102%, a viability, T/C [23] of 91.5% and a viability, T/C [24] of 95.6%. It also gave a viability, T/C [25] of 114%, a viability, T/C [26] of 115% and a viability, T/C [27] of 115%. The viability, T/C [28] was 83.2%, the viability, T/C [29] was 92.5% and the viability, T/C [30] was 120%. The viability, T/C [31] was 122%, the viability, T/C [32] was 128% and the viability, T/C [33] was 122%. For the same compound, the viability, T/C [34] was 113%, the viability, T/C [35] was 155% and the viability, T/C [36] was 110%.
CC1COCCN1c1cc(-c2ccnn2C)c2ccnc(-c3ccn[nH]3)c2n1 (stereo unspecified) + Nc1ccc(C#CCN(C(=O)Cc2ncc(C(F)(F)F)cc2C(F)(F)F)c2ccc(F)cc2)nn1 gave an IC50 (second compound 0.0316 µM) of 292 nM, an IC50 (second compound 0.1 µM) of 408 nM and an IC50 (second compound 0.316 µM) of 479 nM. It also gave an IC50 (second compound 1 µM) of 422 nM, an IC50 (second compound 3.16 µM) of 572 nM and an IC50 (second compound 10 µM) of 482 nM. For the same compound, the viability, T/C [1] was 76.9%, the viability, T/C [2] was 65.1% and the viability, T/C [3] was 48%. For the same compound, the viability, T/C [4] was 35.7%, the viability, T/C [5] was 36.3% and the viability, T/C [6] was 25.3%. It also gave a viability, T/C [7] of 73.1%, a viability, T/C [8] of 59.3% and a viability, T/C [9] of 59.1%. The viability, T/C [10] was 33.6%, the viability, T/C [11] was 32.6% and the viability, T/C [12] was 24.9%. It also gave a viability, T/C [13] of 75.4%, a viability, T/C [14] of 58.4% and a viability, T/C [15] of 59%. It also gave a viability, T/C [16] of 41.4%, a viability, T/C [17] of 34.9% and a viability, T/C [18] of 26%. For the same compound, the viability, T/C [19] was 68.2%, the viability, T/C [20] was 60.5% and the viability, T/C [21] was 51.7%. It also gave a viability, T/C [22] of 41.7%, a viability, T/C [23] of 44.8% and a viability, T/C [24] of 34.8%. The viability, T/C [25] was 70.9%, the viability, T/C [26] was 61.3% and the viability, T/C [27] was 56.1%. For the same compound, the viability, T/C [28] was 44%, the viability, T/C [29] was 39.1% and the viability, T/C [30] was 28.9%. For the same compound, the viability, T/C [31] was 84.5%, the viability, T/C [32] was 70% and the viability, T/C [33] was 59.5%. The viability, T/C [34] was 35.4%, the viability, T/C [35] was 40.1% and the viability, T/C [36] was 34.4%.
COc1ccc([C@@H](O)c2cc(-c3ncnc4cc(N5CCOCC5)ccc34)c(F)cc2Cl)nn1 + Cc1cccc(N(C)C(=O)C2C(O)CCN2c2nc(C)cc(C(F)(F)F)c2C#N)c1 showed an IC50 (second compound 0.0316 µM) of 2680 nM, an IC50 (second compound 0.1 µM) of 2210 nM and an IC50 (second compound 0.316 µM) of 2510 nM. The IC50 (second compound 1 µM) was 2530 nM, the IC50 (second compound 3.16 µM) was 2480 nM and the IC50 (second compound 10 µM) was 3570 nM. The viability, T/C [1] was 90.4%, the viability, T/C [2] was 105% and the viability, T/C [3] was 76%. The viability, T/C [4] was 75.5%, the viability, T/C [5] was 42.4% and the viability, T/C [6] was 36.9%. It also gave a viability, T/C [7] of 98.3%, a viability, T/C [8] of 84% and a viability, T/C [9] of 85.8%. It also gave a viability, T/C [10] of 67.9%, a viability, T/C [11] of 41% and a viability, T/C [12] of 31.4%. It also gave a viability, T/C [13] of 99%, a viability, T/C [14] of 101% and a viability, T/C [15] of 86.3%. It also gave a viability, T/C [16] of 71.6%, a viability, T/C [17] of 43.5% and a viability, T/C [18] of 33.4%. The viability, T/C [19] was 100%, the viability, T/C [20] was 98.3% and the viability, T/C [21] was 81.9%. The viability, T/C [22] was 63.4%, the viability, T/C [23] was 48.4% and the viability, T/C [24] was 32.8%. The viability, T/C [25] was 107%, the viability, T/C [26] was 99.8% and the viability, T/C [27] was 90.4%. For the same compound, the viability, T/C [28] was 61.4%, the viability, T/C [29] was 49.7% and the viability, T/C [30] was 33.8%. It also gave a viability, T/C [31] of 117%, a viability, T/C [32] of 92.5% and a viability, T/C [33] of 90.5%. The viability, T/C [34] was 65%, the viability, T/C [35] was 52.3% and the viability, T/C [36] was 35.6%.
